This experiment addresses Elastase (Pseudomonas aeruginosa (strain ATCC 15692 / PAO1 / 1C / PRS 101 / LMG12228), UniProt P14756). Description: Inhibition of Pseudomonas aeruginosa LasB by fluorimetric assay in buffer of pH 7.2.

As a reminder, the Ki is a measure of affinity in units of concentration, obtained from inhibition or displacement.

Elastase, sequence (P14756 whole entry): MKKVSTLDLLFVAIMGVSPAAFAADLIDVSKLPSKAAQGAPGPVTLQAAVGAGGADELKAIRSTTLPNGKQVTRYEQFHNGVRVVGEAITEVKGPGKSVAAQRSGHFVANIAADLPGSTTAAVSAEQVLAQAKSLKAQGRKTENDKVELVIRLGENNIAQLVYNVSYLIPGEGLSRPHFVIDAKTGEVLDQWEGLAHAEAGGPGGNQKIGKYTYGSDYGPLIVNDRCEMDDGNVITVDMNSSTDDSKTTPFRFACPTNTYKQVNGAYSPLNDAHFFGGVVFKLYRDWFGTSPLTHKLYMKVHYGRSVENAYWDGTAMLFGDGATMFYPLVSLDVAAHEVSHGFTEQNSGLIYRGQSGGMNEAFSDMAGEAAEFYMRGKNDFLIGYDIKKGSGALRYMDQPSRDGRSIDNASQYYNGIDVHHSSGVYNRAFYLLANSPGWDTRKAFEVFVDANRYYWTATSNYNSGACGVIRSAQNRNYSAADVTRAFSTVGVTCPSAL

Turning to `CC(C)[C@H](NC(=O)[C@H](Cc1c[nH]cn1)NC(=O)CS)C(N)=O`, the Ki (read-out: Ki) was found to be 47 µM.
As for `CC(C)C[C@H](NC(=O)[C@H](CO)NC(=O)CS)C(N)=O`, the Ki (read-out: Ki) came to 510 µM.
As for `N=C(N)NCCC[C@H](NC(=O)[C@H](Cc1c[nH]cn1)NC(=O)CS)C(N)=O`, the inhibition constant Ki result was “Not Active”.
Regarding `NC(=O)CC[C@H](NC(=O)CS)C(=O)N[C@@H](Cc1c[nH]c2ccccc12)C(N)=O`, the inhibition constant (Ki) (read-out: Ki) turned out to be 91 µM.
On the same count and under the same terms, in the case of `NCCCC[C@H](NC(=O)[C@H](CS)NC(=O)CS)C(N)=O` it was 274 µM.
As to `CC(C)C[C@H](NC(=O)[C@H](CCC(=O)O)NC(=O)CS)C(N)=O`, the Ki entry is given as “Not Active”.
In the case of `C[C@H](NC(=O)CS)C(=O)N[C@@H](CCCCN)C(N)=O`, under “read-out: Ki”, the Ki was found to be 153 µM.
Same read-out and setting: in the case of `CC(C)C[C@H](NC(=O)[C@H](Cc1ccccc1)NC(=O)CS)C(N)=O` it was 645 µM; in that of `CC(C)[C@H](NC(=O)[C@H](CCCCN)NC(=O)CS)C(N)=O`, 555 µM; in that of `CC(C)C[C@H](NC(=O)[C@H](C)NC(=O)CS)C(N)=O`, 21 µM.
On the same count and under the same terms, for `NCCCC[C@H](NC(=O)CS)C(=O)N[C@@H](Cc1ccccc1)C(N)=O` the value was 126 µM.
The same measure, in the same setting: in the case of `NC(=O)[C@H](Cc1ccccc1)NC(=O)[C@H](CS)NC(=O)CS` it was 131 µM.
In the case of `CC(C)C[C@H](NC(=O)CS)C(=O)N[C@@H](CCCNC(=N)N)C(N)=O`, under “read-out: Ki”, the Ki is 623 µM.
`NC(=O)[C@H](Cc1c[nH]c2ccccc12)NC(=O)[C@H](Cc1ccccc1)NC(=O)CS`: where the note is “read-out: Ki”, the Ki came to 206 µM.
The same measure, in the same setting: in the case of `NC(=O)[C@H](Cc1ccccc1)NC(=O)[C@H](Cc1ccc(O)cc1)NC(=O)CS` it was 6.5 µM; in that of `C[C@H](NC(=O)CS)C(=O)N[C@@H](CCCNC(=N)N)C(N)=O`, 115 µM.
On to `N=C(N)NCCC[C@H](NC(=O)[C@H](CCC(=O)O)NC(=O)CS)C(N)=O`, for which the Ki entry is listed as “Not Active”.
As to `CC[C@@H](C)[C@H](NC(=O)CS)C(=O)N[C@@H](Cc1c[nH]c2ccccc12)C(N)=O`, under “read-out: Ki”, the inhibition constant (Ki) came out at 366 µM.
Same read-out and setting: in the case of `NC(=O)[C@H](CC(=O)O)NC(=O)[C@H](CCCN=C(N)N)NC(=O)CS` it was 650 µM; in that of `CC(C)[C@H](NC(=O)CNC(=O)CS)C(N)=O`, 457 µM.
The same measure, in the same setting: for `NC(=O)[C@H](Cc1ccccc1)NC(=O)[C@H](CCCN=C(N)N)NC(=O)CS` the value was 224 µM.
Same read-out and setting: in the case of `NC(=O)CC[C@H](NC(=O)CS)C(=O)N[C@@H](CCCN=C(N)N)C(N)=O` it was 217 µM.
On to `NC(=O)C[C@H](NC(=O)CS)C(=O)N[C@@H](Cc1ccccc1)C(N)=O`, for which the Ki (read-out: Ki) is 37 µM.
The same measure, in the same setting: in the case of `NCCCC[C@H](NC(=O)[C@H](Cc1ccccc1)NC(=O)CS)C(N)=O` it was 76 µM.
The same measure, in the same setting: for `NC(=O)[C@H](Cc1c[nH]c2ccccc12)NC(=O)[C@H](CCCN=C(N)N)NC(=O)CS` the value was 125 µM.
On to `C[C@H](NC(=O)CS)C(=O)N[C@@H](Cc1ccccc1)C(N)=O`, for which the inhibition constant (Ki) entry is “Not Active”.
Still for that read-out and setting: for `CC[C@@H](C)[C@H](NC(=O)CS)C(=O)N[C@@H](Cc1ccccc1)C(N)=O` the value was “Not Active”; for `C[C@@H](O)[C@H](NC(=O)CS)C(=O)N[C@@H](CCCCN)C(N)=O`, “Not Active”.
Take `N=C(N)NCCC[C@H](NC(=O)CS)C(=O)N[C@@H](CCCCN)C(N)=O`: for the setting “read-out: Ki”, the inhibition constant (Ki) came to 135 µM.
On the same count and under the same terms, for `NC(=O)[C@H](Cc1c[nH]c2ccccc12)NC(=O)[C@@H]1CCCN1C(=O)CS` the value was 562 µM; for `NC(=O)[C@H](Cc1ccccc1)NC(=O)[C@H](Cc1c[nH]c2ccccc12)NC(=O)CS`, 1.1 µM; for `NC(=O)[C@H](Cc1ccccc1)NC(=O)[C@H](CO)NC(=O)CS`, 75 µM.
Turning to `NC(=O)CC[C@H](NC(=O)CS)C(=O)N[C@@H](CC(=O)O)C(N)=O`, the Ki entry is recorded as “Not Active”.
As for `CC(C)[C@H](NC(=O)[C@H](CO)NC(=O)CS)C(N)=O`, the Ki (read-out: Ki) amounted to 229 µM.
On to `CC(C)[C@H](NC(=O)[C@H](CCC(N)=O)NC(=O)CS)C(N)=O`, for which the Ki (read-out: Ki) amounted to 937 µM.
For `N=C(N)NCCC[C@H](NC(=O)[C@H](Cc1ccccc1)NC(=O)CS)C(N)=O`, the Ki result was “Not Active”.
With `CSCC[C@H](NC(=O)CS)C(=O)N[C@@H](CCCNC(=N)N)C(N)=O`, the inhibition constant (Ki) (read-out: Ki) came to 6.6 µM.
For the compound `NC(=O)[C@H](Cc1c[nH]c2ccccc12)NC(=O)[C@H](CO)NC(=O)CS`, the inhibition constant Ki entry is “Not Active”.
Take `CC(C)[C@H](NC(=O)[C@H](Cc1c[nH]c2ccccc12)NC(=O)CS)C(N)=O`: under “read-out: Ki”, the Ki is 4.1 µM.
On the same count and under the same terms, in the case of `N=C(N)NCCC[C@H](NC(=O)[C@H](CC(N)=O)NC(=O)CS)C(N)=O` it was 280 µM; in that of `C[C@@H](O)[C@H](NC(=O)CS)C(=O)N[C@@H](Cc1ccccc1)C(N)=O`, 225 µM.
On the same count and under the same terms, for `N=C(N)NCCC[C@H](NC(=O)[C@H](CO)NC(=O)CS)C(N)=O` the value was 444 µM; for `CC(C)[C@H](NC(=O)[C@H](CCC(=O)O)NC(=O)CS)C(N)=O`, 730 µM.
On to `CSCC[C@H](NC(=O)CS)C(=O)N[C@@H](Cc1ccccc1)C(N)=O`, for which the Ki (read-out: Ki) came to 867 µM.
Same read-out and setting: for `CC[C@@H](C)[C@H](NC(=O)CS)C(=O)N[C@@H](CC(C)C)C(N)=O` the value was 1.3 µM.
Consider `NCCCC[C@H](NC(=O)CS)C(=O)N[C@@H](CC(=O)O)C(N)=O`, for which, where the note is “read-out: Ki”, the inhibitory constant (Ki) turned out to be 971 µM.
On the same count and under the same terms, for `NCCCC[C@H](NC(=O)[C@H](Cc1c[nH]c2ccccc12)NC(=O)CS)C(N)=O` the value was 10 µM; for `NC(=O)[C@H](Cc1c[nH]c2ccccc12)NC(=O)[C@H](Cc1c[nH]c2ccccc12)NC(=O)CS`, 49 µM.
Take `CC(C)C[C@H](NC(=O)[C@H](CS)NC(=O)CS)C(N)=O`: the inhibition constant (Ki) result is “Not Active”.
With `CC(C)[C@H](NC(=O)[C@@H]1CCCN1C(=O)CS)C(N)=O`, under “read-out: Ki”, the Ki is 157 µM.

The values are drawn from ChEMBL document CHEMBL1154297, “Inhibitor profiling of the Pseudomonas aeruginosa virulence factor LasB using N-alpha mercaptoamide template-based inhibitors” (Bioorg Med Chem Lett, 2009).
